One assay relates to Escherichia coli 37.4. In words: Radial diffusion assay (RDA), E. coli 37.4. The class given is cell-based. Particulars: for RDA (mm) E. coli 37.4 Mean: zone of inhibition. The method, then:
(§1) Escherichia coli 37.4 isolate was originally obtained from a patient with a chronic venous ulcer, while Staphylococcus aureus isolate BD14312 was from a patient with atopic dermatitis. Staphylococcus aureus ATCC29213 and Candida albicans ATCC90028 were both obtained from the Clinical Bacteriology Department at Lund University hospital.
(§2) Essentially as described earlier (Lehrer et al., J Immunol Methods 137, 167-173, 1991, Andersson et al., Eur J Biochem 271, 1219-1226, 2004) bacteria were grown to mid-logarithmic phase in 10 ml of full-strength (3% w/v) trypticase soy broth (TSB) (Becton-Dickinson, Cockeysville, Md.). The microorganisms were then washed once with 10 mM Tris, pH 7.4.4×10^6 bacterial colony forming units were added to 15 ml of the underlay agarose gel, consisting of 0.03% (w/v) TSB, 1% (w/v) low electroendosmosis type (EEO) agarose (Sigma, St Louis Mo.) and 0.02% (v/v) Tween 20 (Sigma). The underlay was poured into a ø 144 mm petri dish. After agarose solidification, 4 mm-diameter wells were punched and 6 μl of test sample was added to each well. Plates were incubated at 37° C. for 3 hours to allow diffusion of the peptides. The underlay gel was then covered with 15 ml of molten overlay (6% TSB and 1% Low-EEO agarose in dH2O). Antimicrobial activity of a peptide is visualized as a zone of clearing around each well after 18-24 hours of incubation at 37° C.

Assay [1] has as its system Staphylococcus aureus isolate BD14312. Description: Radial diffusion assay (RDA), S. aureus BD14312. The class given is cell-based. To be noted: zone of inhibition; mean of three measurements; Table 1. The method, then: as §1, §2
For assay [2], the system named is Staphylococcus aureus ATCC29213. In words: Radial diffusion assay (RDA), S. aureus ATCC29213. Format: cell-based. To be noted: zone of inhibition. The method, then: as §1, §2
Assay [3] has as its system Candida albicans ATCC90028. Description: Radial diffusion assay (RDA), Candida ATCC90028. The class given is cell-based. To be noted: zone of inhibition; mean of three measurements; Table 1. How it is done: as §1, §2
The nature of assay [4]: Heparin binding on nitrocellulose with radiolabelled heparin. Particulars: unlabelled heparin 6 mg/ml. How it is done:
Peptides were tested for heparin binding activities. Peptides were applied on nitrocellulose membranes (Hybond, Amersham Biosciences). Membranes were blocked (PBS, pH 7.4, 0.25% Tween 20, 3% bovine serum albumin) for one hour and incubated with radiolabelled heparin for one hour in the same buffer. […] The membranes were washed (3×10 min in PBS, pH 7.4, 0.25% Tween 20). A Bas 2000 radio imaging system (Fuji) was used for visualization of radioactivity.

The nature of assay [5]: Binding to lipid bilayers by ellipsometry. To be noted: 10 mM Tris, pH 7.4. The method, then: (§3) Peptides were tested for binding to lipid bilayers, resulting pore formation and peptide secondary structure in the lipid membranes. Lipid membranes investigated included both zwitterionic ones (containing phosphatidylcholine) and anionic ones (containing mixtures of phosphatidylcholine and phosphatidic acid). Lipid membranes were deposited at silica, and the binding of the peptides from 10 mM Tris, pH 7.4, was directly monitored by ellipsometry. […] Pore formation in these liposomes were determined by including carboxyfluorescein in the liposomes and following the fluorescence intensity increase on addition of peptides to the liposomes. Furthermore, the secondary structure of the peptides in the liposome lipid membranes was probed by circular dichroism.

Assay [6] is described as follows: Pore formation / carboxyfluorescein leakage of liposomes. To be noted: 10 mM Tris, pH 7.4. The method, then: as §3
Assay [7] relates to Pseudomonas aeruginosa 15159. Description: Radial diffusion assay (RDA), P. aeruginosa 15159. Format: cell-based. To be noted: 100 μM of peptides, n=9. How it is done:
as §2
Based on the criteria defined in EXAMPLE 1 several new variants with increased positive net charge, high helicity and increased amphipathicity were designed and synthesized. In order to rationally test as many different variants as possible a PEP screen library was utilized as described above. […]

The next assay deals with P. aeruginosa 27.1. Description: Radial diffusion assay analysis of CNY variants (Example 4). The class given is cell-based, Pseudomonas aeruginosa. To be noted: peptides 100 μM. The method, then:
Radial diffusion assays (RDA) were performed essentially as described earlier (Andersson et al., Eur J Biochem, 2004, 271:1219-1226). Briefly, bacteria (P. aeruginosa 27.1) were grown to mid-logarithmic phase in 10 ml of full-strength (3% w/v) trypticase soy broth (TSB) (Becton-Dickinson, Cockeysville, Md.). The microorganisms were washed once with […] Tris, pH 7.4. 4×10^6 bacterial cfu or 1×10^5 fungal cfu was added to 5 ml of the underlay agarose gel, consisting of 0.03% (w/v) TSB, 1% (w/v) low-electroendosmosistype (Low-EEO) agarose (Sigma, St Louise Mo.) and a final concentration of 0.02% (v/v) Tween 20 (Sigma). The underlay was poured into a Ø 85 mm petri dish. After agarose solidified, 4 mm-diameter wells were punched and 6 μl of test sample was added to each well. Plates were incubated at 37° C. for 3 hours to allow diffusion of the peptides. The underlay gel was then covered with 5 ml of molten overlay (6% TSB and 1% Low-EEO agarose in dH2O). Antimicrobial activity of a peptide is visualized as a clear zone around each well after 18-24 hours of incubation at 37° C. Synthetic peptides were tested in concentrations of 100 μM to determine the antibacterial effect (FIG. 8). CNY21; […], CNY20; […], CNY21R-S; […], CNY20R-S; […], CNY21H-L: […], CNY21H-K: […], CNY21H-P: […].

Where [8] appears, read: Table 2, second generation PEPscreen.

Consider `CC[C@H](C)[C@H](NC(=O)[C@H](CCCCN)NC(=O)[C@H](CCC(=O)O)NC(=O)[C@H](CCCCN)NC(=O)[C@H](CO)NC(=O)[C@H](CCCCN)NC(=O)[C@H](CCCNC(=N)N)NC(=O)[C@H](Cc1ccccc1)NC(=O)[C@H](Cc1ccccc1)NC(=O)[C@H](CC(=O)O)NC(=O)CNC(=O)[C@H](CC(C)C)NC(=O)[C@@H](N)CC(C)C)C(=O)NCC(=O)N[C@@H](CCCCN)C(=O)N[C@@H](CCC(=O)O)C(=O)N[C@@H](Cc1ccccc1)C(=O)N[C@@H](CCCCN)C(=O)N[C@@H](CCCNC(=N)N)C(=O)N[C@H](C(=O)N[C@H](C(=O)N[C@@H](CCC(N)=O)C(=O)N[C@@H](CCCNC(=N)N)C(=O)N[C@H](C(=O)N[C@@H](CCCCN)C(=O)N[C@@H](CC(=O)O)C(=O)N[C@@H](Cc1ccccc1)C(=O)N[C@@H](CC(C)C)C(=O)N[C@@H](CCCNC(=N)N)C(=O)N[C@@H](CC(N)=O)C(=O)N[C@@H](CC(C)C)C(=O)N[C@H](C(=O)N1CCC[C@H]1C(=O)N[C@@H](CCCNC(=N)N)C(=O)N[C@H](C(=O)N[C@@H](CCC(=O)O)C(=O)N[C@@H](CO)C(=O)O)[C@@H](C)O)C(C)C)[C@@H](C)CC)C(C)C)[C@@H](C)CC` [LL37, reference compound], for which the “RDA (mm) E. coli 37.4 Mean” value was 5.604 mm in the assay on Escherichia coli 37.4 (setting [8]) and 3.529 mm in the assay on Escherichia coli 37.4 (mean of six measurements, Table 1). Moreover, the “RDA (mm) S. aureus BD14312 Mean” value in assay [1] turned out to be 1.285 mm. Also, the “RDA (mm) S. aureus ATCC29213 Mean” value in [2] (setting [8]) was found to be 8.755 mm; in [2] (mean of three measurements, Table 1) it was 2.215 mm. In addition, in assay [3], the “RDA (mm) Candida ATCC90028 Mean” value was determined as 2.43 mm.

On to CNYITELRRQHARASHLGLAR [CNY21], for which, in the assay with Escherichia coli 37.4 (100 μM of peptides, n=9), the “RDA mean value, E. coli” value came to 6.02. For the same compound, the “heparin binding, competition by unlabelled heparin” value in [4] was “inhibited the binding”. In addition, the “binding to lipid membranes” value in [5] is “binds to zwitterionic and anionic lipid membranes”. Further, the “pore formation and leakage of liposomes, order of efficiency” value (from here on “pore formation and leakage of liposomes”) in assay [6] was “CNY21H-L≈CNY21H-K>CNY21>CNY21H-P≧CNY21 R-S”. The “RDA mean value, P. aeruginosa” value in assay [7] is reported as 5.00.

As for CNYITELRRQKARASKLGLAR [CNY21H-K], in the assay on P. aeruginosa 27.1, the “antibacterial effect in RDA” value was “larger anti-bacterial effect”. The “pore formation and leakage of liposomes” value in assay [6] was “CNY21H-L≈CNY21H-K>CNY21>CNY21H-P≧CNY21 R-S”.

CNYITELRRQLARASLLGLAR [CNY21H-L]: in the assay on P. aeruginosa 27.1, the “antibacterial effect in RDA” value is “larger anti-bacterial effect”. Further, the “pore formation and leakage of liposomes” value in [6] is listed as “CNY21H-L≈CNY21H-K>CNY21>CNY21H-P≧CNY21 R-S”.

For CNYITELRRQPARASPLGLAR [CNY21H-P], the “antibacterial effect in RDA” value in the assay on P. aeruginosa 27.1 was “no antimicrobial effects”. Also, the “pore formation and leakage of liposomes” value in [6] is on record as “CNY21H-L≈CNY21H-K>CNY21>CNY21H-P≧CNY21 R-S”.

On to CNYITELSSQHASASHLGLAR [CNY21R-S], for which the “binding to lipid membranes” value in [5] is reported as “CNY21 shows a higher binding tendency than CNY21 R-S”. The “pore formation and leakage of liposomes” value in [6] is given as “CNY21H-L≈CNY21H-K>CNY21>CNY21H-P≧CNY21 R-S”.
